Results published in EP4813463A2, “TYK2 INHIBITORS AND COMPOSITIONS AND METHODS THEREOF” (Lynk Pharmaceuticals Co. Ltd., priority 2023, dated 2024).
In brackets after ≈: the same amount, converted by molar mass. Read-outs that look alike come from different tables or passages of the source.

Tests used:
[1] = target: T1, TYK2-JH2 domain (Homo sapiens, UniProt P29597); assay: Binding activity test for JH2 domain of TYK2 (Tb-antibody/tracer FRET); settings: for IC50: JH2 domain enzyme, 60 min at 25°C, then 4°C overnight, read-out: TYK2 JH2 Binding IC50; for JAK1/TYK2 selectivity: ratio of JAK1 JH2 to TYK2 JH2 binding IC50
T1 construct: JAK1-JH2 domain or TYK2-JH2 domain enzyme in assay buffer
T1 sequence (P29597 589-875 limits assumed): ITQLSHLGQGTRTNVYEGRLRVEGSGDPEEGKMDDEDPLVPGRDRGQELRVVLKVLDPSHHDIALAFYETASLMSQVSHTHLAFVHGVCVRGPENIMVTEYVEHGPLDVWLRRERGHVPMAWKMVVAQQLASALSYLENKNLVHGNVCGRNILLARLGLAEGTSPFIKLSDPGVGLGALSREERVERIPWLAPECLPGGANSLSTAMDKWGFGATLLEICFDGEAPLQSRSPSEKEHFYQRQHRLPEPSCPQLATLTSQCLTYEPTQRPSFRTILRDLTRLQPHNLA
Procedure, shortened: (§1)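 Competitive TR-FRET binding: compounds dispensed as an 11-point 3-fold dilution series, then Tb-labelled antibody and tracer added to the JH2 protein system. Incubated at 25°C, then overnight at 4°C; FRET signal read on Envision and IC50 (nM) derived.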

[2] = target: T2, JAK1-JH2 domain (Homo sapiens, UniProt P23458); assay: Binding activity test for JH2 domain of JAK1 (Tb-antibody/tracer FRET); settings: JH2 domain enzyme; 60 min at 25°C, then 4°C overnight; read-out: JAK1 JH2 Binding IC50
T2 construct: JAK1-JH2 domain or TYK2-JH2 domain enzyme in assay buffer
T2 sequence (P23458 583-855 limits assumed): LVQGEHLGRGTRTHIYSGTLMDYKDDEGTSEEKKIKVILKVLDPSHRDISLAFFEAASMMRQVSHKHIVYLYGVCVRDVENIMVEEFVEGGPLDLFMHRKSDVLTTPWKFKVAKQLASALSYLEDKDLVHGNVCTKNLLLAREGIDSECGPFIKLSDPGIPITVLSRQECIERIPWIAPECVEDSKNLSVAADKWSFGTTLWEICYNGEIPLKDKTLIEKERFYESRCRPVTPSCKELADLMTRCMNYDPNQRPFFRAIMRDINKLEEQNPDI
Procedure, shortened: as §1

[3] = system: Ba/F3-FL-TYK2-P760L cells; assay: Anti-proliferative assay in engineered Ba/F3 cells (Cell-Titer Glo, 72 h); format: cell-based; settings: 72 h compound treatment, concentration that causes 50% growth inhibition, read-out: Baf3-FL-T2P760L
Procedure, shortened: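 Ba/F3 cells carrying Tel-dimerization/JAK kinase fusion, IL-3-independent, in RPMI-1640 + 10% FBS; 9-point 3-fold dilutions from 20 µM (0.1% DMSO) added after 24 h, 72 h at 37 °C. Viability by Cell-Titer Glo ATP luminescence; % inhibition versus DMSO cells, blank-corrected, giving IC50.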

[4] = system: pSTAT1; assay: Phosphorylation inhibition of STAT in human whole blood (IFN-alpha stimulated, flow cytometry); format: cell-based; settings: T-cell, 20 min, IFN-alpha stimulation 20 mins, CD3 T cells, read-out: pSTAT1 inhibition in hWB (IC50)
Protocol: The inhibitory potential of test articles in human whole blood assay was evaluated by the method of flow cytometry.
IFN-alpha will activate JAK1 and TYK2 kinase in T cells by binding to IFN receptors, and then lead to phosphorylation of STAT1 and STAT2. The phosphorylated STAT1 enter nuclear and promote transcription and expression of IFN-gamma. To evaluate the efficacy of TYK2i in T cells, freshly collected human whole blood will be stimulated with certain unit of human IFN-alpha (Universal Type I IFN(1MU), R&D, 11200-2) for 20 mins in incubator. After stimulation, fix cells with Phosflow™ Fix Buffer I (BD, 557870), and then collect fixed cells by centrifugation (500 g, 8min). Wash cells once with pre-cooled PBS, and then permeabilize cells with cold Perm Buffer III buffer (BD, 558050) for 45 mins on ice. Collect cells by centrifugation (600 g, 8min) and washed twice with cold PBS. Stain cells with anti-human CD3(FITC Mouse Anti-Human CD3, BD, 555332) and anti-pSTAT1_Y701(Alexa Fluor 647 Mouse Anti-Stat1 (pY701), BD, 612597) antibodies. Detect pSTAT1 by flow cytometry (CytoFlex S) and analyze data with FlowJo and GraphPad Prism 8 software. IC50 values of test articles were determined using 4- parameter logistic equation.

[5] = Kinetic solubility; format: physicochemical; settings: phosphate buffer, pH 7.4, aqueous buffer, kinetic from dmso stock, 100 mM pH 7.4 phosphate buffer, 1% DMSO, room temperature, read-out: Kinetics Solubility_PBS7.4
Protocol: Aliquots of 8 µL of reference and test compound stock solutions (10 mM/5 mM) are added into 792 µL of 100 mM pH 7.4 phosphate buffer. The final DMSO concentration is 1%. Sample tubes are shaken for 2 hours at 1000 rpm at room temperature. Samples are centrifuged at 12000 rpm for 10 min to precipitate un-dissolved particles. And transfer the supernatants to a new tube or plate. Add 5 µL of samples (no diluted, 10 times diluted, and 100 times diluted) and standard curve samples to 95 µL of ACN containing IS for LC-MS/MS analysis. Kinetic Solubilities Values of Exemplary Compounds

[6] = Microsomal metabolic stability assay; format: in vitro ADME; settings: human, liver microsomes, pH 7.4, 0.5 mg/mL microsomal protein, 1 µM test article, 2 mM NADPH; for microsomal CLint at 1 µM: read-out: Human LM Clint; for half-life at 1 µM: read-out: Human LM T1/2
Protocol: Microsomes were pre-incubated with test compound or control compounds for 5 min at 37°C in 100 mM potassium phosphate buffer, pH 7.4, 1.0 mM EDTA. The reaction was initiated by addition of 15 µL of the NADPH regenerating system to 30 µL of each incubation mixture per time point. The final incubation condition was composed of 0.5 mg/mL microsomal protein, 1 µM test article/positive control, 2 mM NADPH. The 0-minute samples were prepared by addition of a 30 µL aliquot of each incubation mixture to 135 µL quench reagent to precipitate proteins. And then a 15 µL aliquot of the NADPH regenerating system was added. At 5, 15, 30 and 45 minutes, the reaction will be stopped by the addition of cold acetonitrile solution containing internal standard. The samples taken at all time points were centrifuged at 5000×g for 15 minutes. 50 µL of supernatant are taken into 96-well assay plates pre-added with 50 µL ultrapure water, and then analyzed by LC/MS/MS.
Concentrations of test articles, control compounds in the samples were determined by using LC/MS/MS method. Plotting of the chromatograms and peak area integrations are carried out by Analyst (AB Sciex).
In the determination of the in vitro elimination constant (ke) of the control compounds, the analyte/internal standard peak area ratios will be converted to percentage remaining (%Remaining) with the following equation: %Remaining = (Peak area ratio of analyte to IS at each time point)/(Peak area ratio of analyte to IS at t = 0) × 100% [formula]
The CLint of microsomes was calculated using the formula: CLint (mic)=0.693/T1/2 /mg microsome protein per mL. The slope was measured by the natural logarithm of the percentage of the residual compound and time, T1/2 was calculated according to the following formula. T = (0.693)/(−slope) [formula]

[2H]C([2H])([2H])NC(=O)c1cnc(NC(=O)C2CC2)cc1Nc1cnn2ccc(C(C)C(F)(F)F)c(OC)c12 (single isomer, unassigned) [Example 9B, (S*)-6-(cyclopropanecarboxamido)-4-((4-methoxy-5-(1,1,1-trifluoropropan-2-yl)pyrazolo[1,5-a]pyridin-3-yl)amino)-N-(methyl-d3)nicotinamide]
IC50 [1]: 0.08 nM | JAK1/TYK2 selectivity [1]: 63.0 | IC50 [2]: 5.04 nM | IC50 [3]: 54.2 nM | IC50 [4]: 290 nM | solubility kinetic at 2 h [5]: 45.4 µM (≈ 21.7 µg/mL)

[2H]C([2H])([2H])NC(=O)c1cnc(NC(=O)C2CC23CC3)cc1Nc1cnn2ccc([C@H](O)C(F)(F)F)c(OC)c12 (single isomer, unassigned) [Example 32A, 4-((4-Methoxy-5-((S)-2,2,2-trifluoro-1-hydroxyethyl)pyrazolo[1,5-a]pyridin-3-yl)amino)-N-(methyl-d3)-6-((S*)-spiro[2.2]pentane-1-carboxamido)nicotinamide]
IC50 [1]: 0.099 nM | JAK1/TYK2 selectivity [1]: 187.6 | IC50 [2]: 18.6 nM | IC50 [3]: 33 nM | IC50 [4]: 99.4 nM | solubility kinetic at 2 h [5]: 25.5 µM (≈ 12.9 µg/mL)

[2H]C([2H])([2H])NC(=O)c1cnc(NC(=O)C2CC2)cc1Nc1cn(C)c2ccc(CC)c(OC)c12 [Example 2, 6-(Cyclopropanecarboxamido)-4-((5-ethyl-4-methoxy-1-methyl-1H-indol-3-yl)amino)-N-(methyl-d3)nicotinamide]
IC50 [1]: 0.333 nM | JAK1/TYK2 selectivity [1]: 15.7 | IC50 [2]: 5.24 nM | IC50 ([3]; Mus musculus, BaF3, 72 h): 17 nM | IC50 [4]: 141 nM | solubility kinetic at 2 h [5]: 15.3 µM (≈ 6.5 µg/mL)

[2H]C([2H])([2H])NC(=O)c1cnc(NC(=O)C2CC2)cc1Nc1cnn2ccc(Cl)c(OC)c12 [Example 3, 4-((5-Chloro-4-methoxypyrazolo[1,5-a]pyridin-3-yl)amino)-6-(cyclopropanecarboxamido)-N-(methyl-d3)nicotinamide]
IC50 [1]: 0.223 nM | JAK1/TYK2 selectivity [1]: 59.9 | IC50 [2]: 13.4 nM | IC50 ([3]; Mus musculus, BaF3, 72 h): 43.6 nM | IC50 [4]: 177 nM | solubility kinetic at 2 h [5]: 15.1 µM (≈ 6.31 µg/mL)

[2H]C([2H])([2H])NC(=O)c1cnc(NC(=O)C2CC2)cc1Nc1cnn2ccc(C)c(OC)c12 [Example 5, 6-(Cyclopropanecarboxamido)-4-((4-methoxy-5-methylpyrazolo[1,5-a]pyridin-3-yl)amino)-N-(methyl-d3)nicotinamide]
IC50 [1]: 0.137 nM | JAK1/TYK2 selectivity [1]: 48.3 | IC50 [2]: 6.62 nM | IC50 ([3]; Mus musculus, BaF3, 72 h): 32 nM | IC50 [4]: 139 nM | solubility kinetic at 2 h [5]: 57.4 µM (≈ 22.8 µg/mL)

[2H]C([2H])([2H])NC(=O)c1cnc(NC(=O)C2CC2)cc1Nc1cnn2ccc(C(O)C(F)(F)F)c(OC)c12 (centres unmarked) [Example 7, 6-(Cyclopropanecarboxamido)-4-((4-methoxy-5-(2,2,2-trifluoro-1-hydroxyethyl)pyrazolo[1,5-a]pyridin-3-yl)amino)-N-(methyl-d3)nicotinamide]
IC50 [1]: 0.147 nM | JAK1/TYK2 selectivity [1]: 74.9 | IC50 [2]: 11 nM | IC50 ([3]; Mus musculus, BaF3, 72 h): 9.32 nM | IC50 [4]: 67.4 nM | solubility kinetic at 2 h [5]: 42.9 µM (≈ 20.7 µg/mL)

[2H]C([2H])([2H])NC(=O)c1cnc(NC(=O)C2CC2)cc1Nc1cnn2ccc(CC(F)(F)F)c(OC)c12 [Example 8, 6-(Cyclopropanecarboxamido)-4-((4-methoxy-5-(2,2,2-trifluoroethyl)pyrazolo[1,5-a]pyridin-3-yl)amino)-N-(methyl-d3)nicotinamide]
IC50 [1]: 0.106 nM | JAK1/TYK2 selectivity [1]: 32.0 | IC50 [2]: 3.39 nM | IC50 ([3]; Mus musculus, BaF3, 72 h): 31.3 nM | IC50 [4]: 75.5 nM | solubility kinetic at 2 h [5]: 18.6 µM (≈ 8.63 µg/mL)

[2H]C([2H])([2H])NC(=O)c1cnc(NC(=O)[C@@H]2C[C@@H]2F)cc1Nc1cnn2ccc(C#N)c(OC)c12 [Example 13, 4-((5-Cyano-4-methoxypyrazolo[1,5-a]pyridin-3-yl)amino)-6-((1S,2S)-2-fluorocyclopropane-1-carboxamido)-N-(methyl-d3)nicotinamide]
IC50 [1]: 0.172 nM | JAK1/TYK2 selectivity [1]: 122.0 | IC50 [2]: 21 nM | IC50 ([3]; Mus musculus, BaF3, 72 h): 131 nM | microsomal CLint at 1 µM [6]: 22 µL/min/mg | half-life at 1 µM [6]: 1.05 h | solubility kinetic at 2 h [5]: 11.2 µM (≈ 4.77 µg/mL)

[2H]C([2H])([2H])NC(=O)c1cnc(NC(=O)C2CC2)cc1Nc1cnn2ccc(COC([2H])([2H])[2H])c(OC)c12 [Example 29, 6-(Cyclopropanecarboxamido)-4-((4-methoxy-5-((methoxy-d3)methyl)pyrazolo[1,5-a]pyridin-3-yl)amino)-N-(methyl-d3)nicotinamide]
IC50 [1]: 0.219 nM | JAK1/TYK2 selectivity [1]: 76.4 | IC50 [2]: 16.7 nM | IC50 ([3]; Mus musculus, BaF3, 72 h): 80.9 nM | microsomal CLint at 1 µM [6]: 27.9 µL/min/mg | half-life at 1 µM [6]: 0.827 h | solubility kinetic at 2 h [5]: 67.2 µM (≈ 28.9 µg/mL)

[2H]C([2H])([2H])NC(=O)c1cnc(NC(=O)[C@@H]2C[C@@H]2F)cc1Nc1cnn2cnc(C(C)C(F)(F)F)c(OC)c12 (stereo partly drawn) [Example 38, 6-((1S,2S)-2-fluorocyclopropane-1-carboxamido)-4-((4-methoxy-5-(1,1,1-trifluoropropan-2-yl)pyrazolo[1,5-c]pyrimidin-3-yl)amino)-N-(methyl-d3)nicotinamide]
IC50 [1]: 0.761 nM | JAK1/TYK2 selectivity [1]: 188.7 | IC50 [2]: 144 nM | IC50 ([3]; Mus musculus, BaF3, 72 h): 1340 nM | microsomal CLint at 1 µM [6]: 7.34 µL/min/mg | half-life at 1 µM [6]: 3.15 h | solubility kinetic at 2 h [5]: 37.2 µM (≈ 18.5 µg/mL)

[2H]C([2H])([2H])NC(=O)c1cnc(NC(=O)C2CC2)cc1Nc1nn(C)c2ccc([C@H](OC)C(F)(F)F)c(OC)c12 [Example 46A, (S)-6-(cyclopropanecarboxamido)-4-((4-methoxy-1-methyl-5-(2,2,2-trifluoro-1-methoxyethyl)-1H-indazol-3-yl)amino)-N-(methyl-d3)nicotinamide]
IC50 [1]: 0.074 nM | JAK1/TYK2 selectivity [1]: 40.64 | IC50 [2]: 3.01 nM | IC50 ([3]; Mus musculus, BaF3, 72 h): 0.31 nM | IC50 [4]: 33 nM | solubility kinetic at 2 h [5]: 8.16 µM (≈ 4.16 µg/mL)

[2H]C([2H])([2H])NC(=O)c1cnc(NC(=O)C2CC2)cc1Nc1nn(C)c2ccc([C@@H](O)C(F)(F)F)c(OC)c12 [Example 49B, (R)-6-(cyclopropanecarboxamido)-4-((4-methoxy-1-methyl-5-(2,2,2-trifluoro-1-hydroxyethyl)-1H-indazol-3-yl)amino)-N-(methyl-d3)nicotinamide]
IC50 [1]: 0.211 nM | JAK1/TYK2 selectivity [1]: 28.76 | IC50 [2]: 6.07 nM | IC50 ([3]; Mus musculus, BaF3, 72 h): 18 nM | solubility kinetic at 2 h [5]: 37.5 µM (≈ 18.6 µg/mL)
